For 26 molecules, Kd and IC50 results are on record in patent US20240025906A1 (NEURON23, INC., priority 2022, published 2024).

Each structure is given as a SMILES string. Bounds are passed on as bounds.

Experiment [1] deals with T1, TYK2 JH2 (Homo sapiens, UniProt P29597).
T1 construct: purchased DiscoverX (KINOMEscan KdELECT service); host or cells: E. coli BL21-derived (T7 phage display) or HEK-293
Kind of experiment: TYK2 JH2 binding assay (KINOMEscan KdELECT competitive binding). As to conditions: TYK2 JH2 domain, KINOMEscan KdELECT (Assay A); read-out: Biochemical TYK2_DiscoverX_JH2_BND_Kd. The gist of the method: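 Kd values come from qPCR measurement of kinase retained on an immobilized-ligand resin after 1 h room-temperature competition with compound in an 11-point, 3-fold series.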

Experiment [2] relates to JAK1/TYK2 pSTAT5 (Tyr694/699) in THP-1 cell line. As to the kind of experiment: IFNa-stimulated JAK1/TYK2 pSTAT5 (Tyr694/699) inhibition cellular assay, AlphaLISA. In kind it is cell-based. The conditions noted are these: Homo sapiens; THP-1 cells, IFNa-stimulated, AlphaLISA (Assay B); read-out: Cellular_THP1_IFNa-pSTATS_TYK2. The gist of the method: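 THP-1 cells (2e4/well) in HBSS preincubated 1 h at 37° C. with compound (final 10000–0.04 nM, 8 points, 6-fold), then stimulated with IFNa (100 ng/mL stock) for 30 min before lysis. pSTAT5 (Tyr694/699) read by AlphaLISA at 615 nm; IC50 from four-parameter logistic fit with bottom fixed at 0 and Hill slope at −1.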
For orientation: Bead proximity is the source of the signal in Alpha formats.

T1 sequence (P29597 589-875 limits assumed): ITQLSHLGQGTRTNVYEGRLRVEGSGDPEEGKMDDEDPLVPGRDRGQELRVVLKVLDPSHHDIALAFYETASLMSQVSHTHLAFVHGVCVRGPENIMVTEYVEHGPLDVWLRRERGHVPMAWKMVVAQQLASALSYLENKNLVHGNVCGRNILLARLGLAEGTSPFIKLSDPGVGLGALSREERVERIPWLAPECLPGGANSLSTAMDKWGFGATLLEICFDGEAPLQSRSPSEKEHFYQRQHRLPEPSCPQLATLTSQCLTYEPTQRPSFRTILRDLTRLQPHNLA

On to `CNc1ncc(C#Cc2ccc(-n3nccn3)cc2)c2cc(NC(=O)C3CC3)ncc12` [Example 772, N-(5-((4-(2H-1,2,3-triazol-2-yl)phenyl)ethynyl)-8-(methylamino)-2,7-naphthyridin-3-yl)cyclopropanecarboxamide], for which the Kd in experiment [1] was at most 100 nM. Moreover, the IC50 in experiment [2] is at most 500 nM.
Turning to `CNc1ncc(C#Cc2ccc3nc(C(C)(F)F)n(C)c3c2)c2cc(NC(=O)C3CC3)ncc12` [Example 773, N-(5-((2-(1,1-difluoroethyl)-1-methyl-1H-benzo[d]imidazol-6-yl)ethynyl)-8-(methylamino)-2,7-naphthyridin-3-yl)cyclopropanecarboxamide], the Kd in experiment [1] is at most 100 nM. In experiment [2], the IC50 is at most 500 nM.
The corresponding values for `CNc1ncc(C#Cc2ccc3nc(CC(F)(F)F)n(C)c3c2)c2cc(NC(=O)C3CC3)ncc12` [Example 774, N-(5-((1-methyl-2-(2,2,2-trifluoroethyl)-1H-benzo[d]imidazol-6-yl)ethynyl)-8-(methylamino)-2,7-naphthyridin-3-yl)cyclopropanecarboxamide] are at most 100 nM and at most 500 nM.
Taken in the same sequence, the figures for `CNc1ncc(C#Cc2ccc3nc(C(F)F)n(C)c3c2)c2cc(NC(=O)[C@H]3C[C@H]3C)ncc12` [Example 775, (1S,2R)—N-(5-((2-(difluoromethyl)-1-methyl-1H-benzo[d]imidazol-6-yl)ethynyl)-8-(methylamino)-2,7-naphthyridin-3-yl)-2-methylcyclopropane-1-carboxamide] were at most 100 nM and at most 500 nM.
As for `[2H]C([2H])([2H])Nc1ncc(C#Cc2ccc(OC)cn2)c2cc(NC(=O)C3CC3)ncc12` [Example 778, N-(5-((5-methoxypyridin-2-yl)ethynyl)-8-((methyl-d3)amino)-2,7-naphthyridin-3-yl)cyclopropanecarboxamide], the Kd in experiment [1] was at most 100 nM. Further, the IC50 in experiment [2] was at most 500 nM.
On to `[2H]C([2H])([2H])Nc1ncc(C#Cc2ccc(OC)cn2)c2cc(NC(=O)[C@H]3C[C@H]3C)ncc12` [Example 779, (1S,2R)—N-(5-((5-methoxypyridin-2-yl)ethynyl)-8-((methyl-d3)amino)-2,7-naphthyridin-3-yl)-2-methylcyclopropane-1-carboxamide], for which the Kd in experiment [1] is at most 100 nM. The IC50 in experiment [2] is at most 500 nM.
The corresponding values for `CCc1nc(NC)c2cnc(NC(=O)C3CC3)cc2c1C#Cc1ccc(OC)cc1` [Example 780, N-(6-ethyl-5-((4-methoxyphenyl)ethynyl)-8-(methylamino)-2,7-naphthyridin-3-yl)cyclopropanecarboxamide] are at most 100 nM and over 500 nM.
The corresponding values for `CNc1nc(C)c(C#Cc2ccc(OC)cc2)c2cc(NC(=O)C3CC3)ncc12` [Example 781, N-(5-((4-methoxyphenyl)ethynyl)-6-methyl-8-(methylamino)-2,7-naphthyridin-3-yl)cyclopropanecarboxamide] are at most 100 nM and over 500 nM.
The corresponding values for `CNc1ncc(/C=C/c2ccc(OCCOC)cc2)c2cc(NC(=O)C3CC3)ncc12` [Example 782, (E)-N-(5-(4-(2-methoxyethoxy)styryl)-8-(methylamino)-2,7-naphthyridin-3-yl)cyclopropanecarboxamide] are at most 100 nM and at most 500 nM.
As for `CNc1ncc(/C=C/c2ccc(CC#N)cc2)c2cc(NC(=O)C3CC3)ncc12` [Example 783, (E)-N-(5-(4-(cyanomethyl)styryl)-8-(methylamino)-2,7-naphthyridin-3-yl)cyclopropanecarboxamide], the Kd in experiment [1] is at most 100 nM. The IC50 in experiment [2] is at most 500 nM.
For `CNc1ncc(/C=C/c2ccc(OCC(C)(C)O)cc2)c2cc(NC(=O)C3CC3)ncc12` [Example 784, (E)-N-(5-(4-(2-hydroxy-2-methylpropoxy)styryl)-8-(methylamino)-2,7-naphthyridin-3-yl)cyclopropanecarboxamide], the Kd in experiment [1] is at most 100 nM. Besides, the IC50 in experiment [2] is at most 500 nM.
The corresponding values for `C=C(c1ccc(OCC(C)(C)O)cc1)c1cnc(NC)c2cnc(NC(=O)C3CC3)cc12` [Example 785, N-(5-(1-(4-(2-hydroxy-2-methylpropoxy)phenyl)vinyl)-8-(methylamino)-2,7-naphthyridin-3-yl)cyclopropanecarboxamide] are at most 100 nM and over 500 nM.
The corresponding values for `CNc1ncc(/C=C/c2ccc(N3C[C@@H](C)O[C@@H](C)C3)cc2)c2cc(NC(=O)C3CC3)ncc12` [Example 786, N-(5-((E)-4-((2R,6S)-2,6-dimethylmorpholino)styryl)-8-(methylamino)-2,7-naphthyridin-3-yl)cyclopropanecarboxamide] are at most 100 nM and at most 500 nM.
As for `CNc1ncc(/C=C/c2ccc(N3CCO[C@@H](C)C3)cc2)c2cc(NC(=O)C3CC3)ncc12` [Example 787, (S,E)-N-(8-(methylamino)-5-(4-(2-methylmorpholino)styryl)-2,7-naphthyridin-3-yl)cyclopropanecarboxamide], the Kd in experiment [1] is at most 100 nM. Moreover, the IC50 in experiment [2] was at most 500 nM.
Taken in the same sequence, the figures for `C=C(c1ccc(N2CCO[C@@H](C)C2)cc1)c1cnc(NC)c2cnc(NC(=O)C3CC3)cc12` [Example 788, (S)—N-(8-(methylamino)-5-(1-(4-(2-methylmorpholino)phenyl)vinyl)-2,7-naphthyridin-3-yl)cyclopropanecarboxamide] were 100 to 1000 nM and over 500 nM.
The corresponding values for `CNc1ncc(/C=C/c2ccc(N3CCOCC3)cc2)c2cc(NC(=O)C3CC3)ncc12` [Example 792, (E)-N-(8-(methylamino)-5-(4-morpholinostyryl)-2,7-naphthyridin-3-yl)cyclopropanecarboxamide] are at most 100 nM and at most 500 nM.
Taken in the same sequence, the figures for `C=C(c1ccc(N2CCOCC2)cc1)c1cnc(NC)c2cnc(NC(=O)C3CC3)cc12` [Example 793, N-(8-(methylamino)-5-(1-(4-morpholinophenyl)vinyl)-2,7-naphthyridin-3-yl)cyclopropanecarboxamide] were at most 100 nM and over 500 nM.
`CNc1ncc(/C=C/c2ccc(OCCC#N)cc2)c2cc(NC(=O)C3CC3)ncc12` [Example 794, (E)-N-(5-(4-(2-cyanoethoxy)styryl)-8-(methylamino)-2,7-naphthyridin-3-yl)cyclopropanecarboxamide]: in experiment [1], the Kd was at most 100 nM. The IC50 in experiment [2] was at most 500 nM.
The corresponding values for `CNc1ncc(/C=C/c2ccc(O)cc2)c2cc(Nc3ccccn3)ncc12` [Example 795, (E)-4-(2-(1-(methylamino)-6-(pyridin-2-ylamino)-2,7-naphthyridin-4-yl)vinyl)phenol] are at most 100 nM and at most 500 nM.
Taken in the same sequence, the figures for `CNc1ncc(-c2cc3ccc(N4CCOCC4)cn3n2)c2cc(NC(=O)C3CC3)ncc12` [Example 796, N-(8-(methylamino)-5-(6-morpholinopyrazolo[1,5-a]pyridin-2-yl)-2,7-naphthyridin-3-yl)cyclopropanecarboxamide] were at most 100 nM and at most 500 nM.
As for `CNc1ncc(-c2cc3ccc(N4CCO[C@@H](C)C4)cn3n2)c2cc(NC(=O)[C@H]3C[C@H]3C)ncc12` [Example 798, (1S,2R)-2-methyl-N-(8-(methylamino)-5-(6-((S)-2-methylmorpholino)pyrazolo[1,5-a]pyridin-2-yl)-2,7-naphthyridin-3-yl)cyclopropane-1-carboxamide], the Kd in experiment [1] was at most 100 nM. Further, the IC50 in experiment [2] was at most 500 nM.
The corresponding values for `[2H]C([2H])([2H])Nc1ncc(/C=C/c2ccc(OCCC#N)cc2)c2cc(NC(=O)[C@H]3C[C@H]3C)ncc12` [Example 799, (1S,2R)—N-(5-((E)-4-(2-cyanoethoxy)styryl)-8-((methyl-d3)amino)-2,7-naphthyridin-3-yl)-2-methylcyclopropane-1-carboxamide] are at most 100 nM and at most 500 nM.
The corresponding values for `CNc1nc(CO)c(C#Cc2ccc(OC)cn2)c2cc(NC(=O)C3CC3)ncc12` [Example 800, N-(6-(hydroxymethyl)-5-((5-methoxypyridin-2-yl)ethynyl)-8-(methylamino)-2,7-naphthyridin-3-yl)cyclopropanecarboxamide] are at most 100 nM and at most 500 nM.
Taken in the same sequence, the figures for `CNc1ncc(C#Cc2ccc3oc(C)nc3c2)c2cc(NC(=O)C3CC3)ncc12` [Example 801, N-(8-(methylamino)-5-((2-methylbenzo[d]oxazol-5-yl)ethynyl)-2,7-naphthyridin-3-yl)cyclopropanecarboxamide] were at most 100 nM and at most 500 nM.
Regarding `CNc1ncc(C#Cc2ccnn2C)c2cc(NC(=O)C3CC3)ncc12` [Example 804, N-(5-((1-methyl-1H-pyrazol-5-yl)ethynyl)-8-(methylamino)-2,7-naphthyridin-3-yl)cyclopropanecarboxamide], in experiment [1], the Kd is at most 100 nM. Further, the IC50 in experiment [2] is at most 500 nM.
With `CCn1ncc(C#Cc2cnc(NC)c3cnc(NC(=O)C4CC4)cc23)n1` [Example 805, N-(5-((2-ethyl-2H-1,2,3-triazol-4-yl)ethynyl)-8-(methylamino)-2,7-naphthyridin-3-yl)cyclopropanecarboxamide], the Kd in experiment [1] was at most 100 nM. Moreover, the IC50 in experiment [2] was at most 500 nM.
